This passage reports IC50 results from patent US11524966B1 (Valo Early Discovery, Inc., priority 2017, dated 2022).

The IC50 is the concentration that inhibits the measured activity by half.

The structures appear in SMILES notation.

This assay addresses T1, USP25 (USP25-His6, Boston Biochem E-546) (Homo sapiens, UniProt Q9UHP3).
T1 construct: His6; purchased Boston Biochem E-546
T1 sequence (Q9UHP3 1-1055): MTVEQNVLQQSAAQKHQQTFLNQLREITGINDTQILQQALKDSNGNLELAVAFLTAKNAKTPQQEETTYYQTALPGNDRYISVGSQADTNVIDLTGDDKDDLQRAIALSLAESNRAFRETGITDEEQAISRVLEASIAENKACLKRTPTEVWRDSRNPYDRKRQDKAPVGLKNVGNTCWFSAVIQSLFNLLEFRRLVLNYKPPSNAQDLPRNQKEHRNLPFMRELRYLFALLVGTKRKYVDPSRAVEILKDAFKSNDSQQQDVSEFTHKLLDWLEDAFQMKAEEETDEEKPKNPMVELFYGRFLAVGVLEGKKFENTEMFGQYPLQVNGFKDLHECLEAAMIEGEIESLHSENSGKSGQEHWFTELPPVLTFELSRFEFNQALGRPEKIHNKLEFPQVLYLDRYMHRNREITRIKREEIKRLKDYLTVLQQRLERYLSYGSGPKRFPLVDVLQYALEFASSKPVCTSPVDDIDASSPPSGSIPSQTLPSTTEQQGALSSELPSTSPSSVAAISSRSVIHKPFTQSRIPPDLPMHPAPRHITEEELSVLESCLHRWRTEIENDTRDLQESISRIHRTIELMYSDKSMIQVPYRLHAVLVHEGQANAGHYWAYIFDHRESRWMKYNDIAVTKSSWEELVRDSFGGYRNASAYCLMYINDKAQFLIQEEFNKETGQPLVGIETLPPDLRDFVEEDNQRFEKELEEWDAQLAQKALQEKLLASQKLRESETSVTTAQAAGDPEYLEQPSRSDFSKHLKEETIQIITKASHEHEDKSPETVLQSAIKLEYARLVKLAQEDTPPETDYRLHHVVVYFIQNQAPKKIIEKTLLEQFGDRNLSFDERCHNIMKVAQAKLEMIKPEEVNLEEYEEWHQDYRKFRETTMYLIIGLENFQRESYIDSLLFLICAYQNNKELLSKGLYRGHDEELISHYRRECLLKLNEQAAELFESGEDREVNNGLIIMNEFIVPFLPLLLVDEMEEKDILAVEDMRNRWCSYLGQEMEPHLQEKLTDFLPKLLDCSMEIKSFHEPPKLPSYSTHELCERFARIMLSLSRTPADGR
Nature of the assay: Ubiquitin-Rhodamine 110 Assay for USP25 Activity, Example A-2. The assay is classed as biochemical. The conditions noted are these: Ubiquitin-Rhodamine 110 assay, Example A-2; read-out: USP25 A-2 IC50 range. In a few lines:
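Fluorescence (ex 485, em 535 nm) of cleaved ubiquitin-rhodamine 110 (25 nM, below Km) gave IC50 via 4-parameter logistic fit. Reaction: 45 min, room temperature, citric acid stop, after 30 min compound preincubation with 75 pM USP25-His6 in 20 mM Tris pH 8.0, 3 mM BME, 0.03% BGG, 0.01% Triton X-100; top dose 25 μM.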

With `Cc1ccc2c(N)c(C(=O)N[C@H]3CCc4nc(N5C[C@H](N)[C@H](C(F)F)C5)ccc4C3)sc2n1` [Example 345, 3-amino-N-[(6S)-2-[(3R,4R)-3-amino-4-(difluoromethyl)pyrrolidin-1-yl]-5,6,7,8-tetrahydroquinolin-6-yl]-6-methylthieno[2,3-b]pyridine-2-carboxamide], the IC50 lay within 0.2 to 2 µM.

`Cc1ccc2c(N)c(C(=O)N[C@H]3CCc4nc(N5C[C@@H](N)[C@@H](C(F)F)C5)ccc4C3)sc2n1` [Example 346, 3-amino-N-[(6S)-2-[(3S,4S)-3-amino-4-(difluoromethyl)pyrrolidin-1-yl]-5,6,7,8-tetrahydroquinolin-6-yl]-6-methylthieno[2,3-b]pyridine-2-carboxamide]: the IC50 was 0.2 to 2 µM.

Take `Cc1ccc2c(N)c(C(=O)N[C@H]3CCc4nc(N5C[C@H](C(F)F)[C@@H](N)C5)ccc4C3)sc2n1` [Example 347, 3-amino-N-[(6S)-2-[(3R,4S)-3-amino-4-(difluoromethyl)pyrrolidin-1-yl]-5,6,7,8-tetrahydroquinolin-6-yl]-6-methylthieno[2,3-b]pyridine-2-carboxamide]: the IC50 is 0.2 to 2 µM.

On to `COC[C@H]1CN(c2ccc3c(n2)OC[C@H](NC(=O)c2sc4nc(C)cc(C)c4c2N)C3)C[C@H]1N` [Example 349, 3-amino-N-[(3R)-7-[(3S,4S)-3-amino-4-(methoxymethyl)pyrrolidin-1-yl]-2H,3H,4H-pyrano[2,3-b]pyridin-3-yl]-4,6-dimethylthieno[2,3-b]pyridine-2-carboxamide], for which the concentration for half-maximal inhibition (IC50) was in the range of 0.2 to 2 µM.

For the molecule `CN[C@H]1CN(c2ccc3c(c2)OC[C@H](NC(=O)c2sc4nc(C)ccc4c2N)C3)C[C@@H]1O` [Example 350, 3-amino-N-[(3R)-7-[(3S,4S)-3-hydroxy-4-(methylamino)pyrrolidin-1-yl]-3,4-dihydro-2H-1-benzopyran-3-yl]-6-methylthieno[2,3-b]pyridine-2-carboxamide], the concentration for half-maximal inhibition (IC50) lay within 0.2 to 2 µM.

`CCn1ccc2cc(C(=O)N[C@H]3CCc4nc(N5C[C@H](OC)[C@@H](N)C5)ccc4C3)cnc21` [Example 353, N-[(6S)-2-[(3S,4S)-3-amino-4-methoxypyrrolidin-1-yl]-5,6,7,8-tetrahydroquinolin-6-yl]-1-ethyl-1H-pyrrolo[2,3-b]pyridine-5-carboxamide]: the IC50 was greater than 2 µM.

As to `Cc1cc(C)c2c(N)c(C(=O)N[C@H]3CCc4nc(N5CC6CCC(C5)N6)ccc4C3)sc2n1` [Example 354, 3-amino-N-[(6S)-2-{3,8-diazabicyclo[3.2.1]octan-3-yl}-5,6,7,8-tetrahydroquinolin-6-yl]-4,6-dimethylthieno[2,3-b]pyridine-2-carboxamide], the half-inhibitory concentration (IC50) was in the range of 0.2 to 2 µM.

With `CCn1cc(Cl)c2cc(C(=O)N[C@H]3COc4c(F)c(N5CC6CCC(C5)N6)cc(F)c4C3)nnc21` [Example 355, 5-chloro-N-[(3R)-7-{3,8-diazabicyclo[3.2.1]octan-3-yl}-5,8-difluoro-3,4-dihydro-2H-1-benzopyran-3-yl]-7-ethyl-7H-pyrrolo[2,3-c]pyridazine-3-carboxamide], the half-maximal inhibitory concentration (IC50) lay in the range of 0.2 to 2 µM.

In the case of `CCn1cc(Cl)c2cc(C(=O)N[C@H]3COc4c(C#N)c(N5CC6CCC(C5)N6)cc(F)c4C3)nnc21` [Example 356, 5-chloro-N-[(3R)-8-cyano-7-{3,8-diazabicyclo[3.2.1]octan-3-yl}-5-fluoro-3,4-dihydro-2H-1-benzopyran-3-yl]-7-ethyl-7H-pyrrolo[2,3-c]pyridazine-3-carboxamide], the half-inhibitory concentration (IC50) is 0.2 to 2 µM.

`Cc1ccc2c(N)c(C(=O)N[C@H]3CCc4nc(N5C[C@H](N)[C@H](OC(C)(F)F)C5)ccc4C3)sc2n1` [Example 357, 3-amino-N-[(6S)-2-[(3S,4R)-3-amino-4-(1,1-difluoroethoxy)pyrrolidin-1-yl]-5,6,7,8-tetrahydroquinolin-6-yl]-6-methylthieno[2,3-b]pyridine-2-carboxamide]: the IC50 is 0.2 to 2 µM.
